The text below walks through data of publication PMC12301304 (Frontiers in Pharmacology, 2025).

Broadly, the AUC(0-inf) is the area under the concentration-time curve extrapolated to infinity. A word on the AUC(0-t): it is exposure summed from dosing to a finite time, without extrapolation to infinity. Usually CL/F stands for clearance divided by bioavailability, as obtained after extravascular dosing. A word on the Cmax: it is the maximum level reached in the sampled fluid or tissue. What is called half-life is the time needed for the level to fall by half in the phase considered.

The structures appear in SMILES notation.

The data set can be described thus: Pharmacokinetics of the seven cocktail probe drugs in blank control rats (Group C). As to conditions: for AUC(0-inf) / AUC(0-t) / CL/F / Cmax / half-life: rat, in vivo, po; for t1/2 z: probe drug in rat plasma, cocktail by gavage, Group C (0.3% CMC-Na 14 d), n = 8. The procedure:
The effect of the Zhicaowu–Hezi combination on CYP450 enzymes in rats was evaluated by examining the pharmacokinetics of theophylline (CYP1a2), metoprolol (CYP2d2), bupropion (CYP2b1), omeprazole (CYP2c13), chlorzoxazone (CYP2e1), testosterone (CYP3a1), and diclofenac (CYP2c11).
The collected blood was placed in sodium heparin-treated centrifuge tubes and centrifuged at 4°C for 10 min at 3,000 RPM. […] After 10 min of sedimentation, the supernatant was extracted through a 0.22-μm microporous membrane, 20 μL of which was injected into HPLC. The pharmacokinetic parameters of each probe drug were calculated using the non-atrial compartment model in Drug and Statistics software (DAS, 3.0; Shanghai, China).

Take `CC(NC(C)(C)C)C(=O)c1cccc(Cl)c1` (stereo not drawn) [bupropion]: the AUC(0-inf) stood at 16300 ± 1410 ng·h/mL, the AUC(0-t) is 15800 ± 1320 ng·h/mL, the apparent clearance CL/F is 7.16 mL/min/kg and the Cmax stood at 1300 ± 93 ng/mL. Also, the half-life is 18.7 ± 0.948 h.

With `C[C@]12CC[C@H]3[C@@H](CCC4=CC(=O)CC[C@@]43C)[C@@H]1CC[C@@H]2O` [testosterone], the AUC(0-inf) worked out at 1410 ± 69 ng·h/mL, the AUC(0-t) worked out at 1210 ± 81 ng·h/mL, the CL/F was 66.8 mL/min/kg and the Cmax was 295 ± 54 ng/mL. In addition, the half-life was 11.1 ± 1.11 h.

As to `O=C(O)Cc1ccccc1Nc1c(Cl)cccc1Cl` [diclofenac], the AUC(0-inf) was determined as 5470 ± 358 ng·h/mL, the AUC(0-t) was 5230 ± 465 ng·h/mL, the apparent clearance (CL/F) is 42.3 mL/min/kg and the Cmax came out at 1080 ± 115 ng/mL. Further, the half-life was 4.98 ± 0.557 h.

For the molecule `COc1ccc2[nH]c([S+]([O-])Cc3ncc(C)c(OC)c3C)nc2c1` (stereo not drawn) [omeprazole], the t1/2 z came to 4.689 ± 0.467 h, the AUC(0-inf) was 3900 ± 394 ng·h/mL, the AUC(0-t) is 3840 ± 372 ng·h/mL and the CL/F is 43.4 mL/min/kg. For the same molecule, the Cmax worked out at 995 ± 78 ng/mL.

On to `COCCc1ccc(OCC(O)CNC(C)C)cc1` (stereo not drawn) [metoprolol], for which the AUC(0-inf) was 10100 ± 1480 ng·h/mL, the AUC(0-t) turned out to be 9600 ± 988 ng·h/mL, the CL/F was 26.3 mL/min/kg and the Cmax stood at 891 ± 114 ng/mL. Further, the half-life is 7.95 ± 1.15 h.

With `Cn1c(=O)c2[nH]cnc2n(C)c1=O` [theophylline], the t1/2 z amounted to 5.273 ± 0.526 h, the AUC(0-inf) is 22500 ± 1440 ng·h/mL, the AUC(0-t) came out at 21900 ± 1250 ng·h/mL and the CL/F is 7.75 mL/min/kg. Also, the Cmax was determined as 1810 ± 94 ng/mL.
